Data on 24 compounds can be found in patent US12662490B2, “Heterocyclic compounds” (Hoffmann-La Roche Inc., priority 2019, dated 2026).

The target in this test is T1, MAGL (Homo sapiens, UniProt Q99685).
T1 sequence (Q99685 1-303): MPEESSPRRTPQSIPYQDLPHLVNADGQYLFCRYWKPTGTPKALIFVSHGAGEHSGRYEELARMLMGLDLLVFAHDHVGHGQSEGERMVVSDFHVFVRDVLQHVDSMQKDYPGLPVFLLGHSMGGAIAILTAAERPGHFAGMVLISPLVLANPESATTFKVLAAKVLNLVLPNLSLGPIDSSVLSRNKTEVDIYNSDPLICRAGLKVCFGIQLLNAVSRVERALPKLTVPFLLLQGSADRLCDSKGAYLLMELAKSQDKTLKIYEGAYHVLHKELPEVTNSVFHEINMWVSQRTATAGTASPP
Briefly: 2-AG assay (MAGL inhibitory activity; hydrolysis of 2-arachidonoylglycerol to arachidonic acid followed by mass spectrometry). In kind it is biochemical. Conditions: 15 min preincubation at RT, 8 μM 2-arachidonoylglycerol, 30 min at RT, RapidFire MS readout. In a few lines: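 Compounds (final 12.5 μM to […], 3-fold steps) preincubated 15 min at RT with MAGL ([…]) in 50 mM TRIS, 1 mM EDTA, Tween buffer. Reaction started with 8 μM 2-arachidonoylglycerol, run 30 min at RT, quenched with ACN containing d8-arachidonic acid. Arachidonic acid quantified by RapidFire SPE-triple quadrupole MS (negative ESI), activity from arachidonic acid/d8 ratio.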
As a reminder, the IC50 is the midpoint of a concentration-inhibition curve. In turn, `N#Cc1cc(-c2cc(F)cc(C(=O)N3CCN4C[C@@H](c5c[nH]c(C(F)(F)F)cc5=O)OC[C@@H]4C3)c2Cl)c[nH]1` [Example 132, 4-[3-[(3R,9aS)-3-[4-oxo-6-(trifluoromethyl)-1H-pyridin-3-yl]-3,4,6,7,9,9a-hexahydro-1H-pyrazino[2,1-c][1,4]oxazine-8-carbonyl]-2-chloro-5-fluoro-phenyl]-1H-pyrrole-2-carbonitrile] registered an IC50 of 131 nM.
Turning to `O=C(c1cc(F)cc(-c2c[nH]nc2F)c1Cl)N1CCN2C[C@@H](c3cc(Cl)c[nH]c3=O)OC[C@@H]2C1` [Example 133, 3-[(3R,9aS)-8-[2-chloro-5-fluoro-3-(3-fluoro-1H-pyrazol-4-yl)benzoyl]-3,4,6,7,9,9a-hexahydro-1H-pyrazino[2,1-c][1,4]oxazin-3-yl]-5-chloro-1H-pyridin-2-one], the half-inhibitory concentration (IC50) was found to be 142 nM.
The figure for `O=C(c1cccc(-c2n[nH]c(=O)o2)c1Cl)N1CCN2C[C@@H](c3ccc(F)c(Cl)c3)OC[C@@H]2C1` [Example 134, 5-[3-[(3R,9aS)-3-(3-chloro-4-fluoro-phenyl)-3,4,6,7,9,9a-hexahydro-1H-pyrazino[2,1-c][1,4]oxazine-8-carbonyl]-2-chloro-phenyl]-3H-1,3,4-oxadiazol-2-one] is 144 nM.
Compound `COc1cccc(C(=O)N2CCN3C[C@@H](c4cc(Cl)c(F)c(C#N)c4)OC[C@@H]3C2)c1Cl` [Example 135, 5-[(3R,9aS)-8-(2-chloro-3-methoxy-benzoyl)-3,4,6,7,9,9a-hexahydro-1H-pyrazino[2,1-c][1,4]oxazin-3-yl]-3-chloro-2-fluoro-benzonitrile] came in with a 50% inhibitory concentration (IC50) of 146 nM.
`COc1cccc(C(=O)N2CCN3C[C@@](O)(c4ccc(C(F)(F)F)[nH]c4=O)OC[C@@H]3C2)c1Cl` [Example 136, 3-[(3R,9aS)-8-(2-chloro-3-methoxy-benzoyl)-3-hydroxy-1,4,6,7,9,9a-hexahydropyrazino[2,1-c][1,4]oxazin-3-yl]-6-(trifluoromethyl)-1H-pyridin-2-one] gave an IC50 of 152 nM.
With `COc1cccc(C(=O)N2CCN3C[C@@H](c4ccc(-c5cnco5)c(Cl)c4)OC[C@@H]3C2)c1Cl` [Example 137, [(3R,9aS)-3-(3-chloro-4-oxazol-5-yl-phenyl)-3,4,6,7,9,9a-hexahydro-1H-pyrazino[2,1-c][1,4]oxazin-8-yl]-(2-chloro-3-methoxy-phenyl)methanone], half-maximal inhibition (IC50) required 182 nM.
With `N#Cc1cc(-c2cccc(C(=O)N3CCN4C[C@@H](c5ccc(F)c(Cl)c5)OC[C@@H]4C3)c2Cl)n[nH]1` [Example 138, 3-[3-[(3R,9aS)-3-(3-chloro-4-fluoro-phenyl)-3,4,6,7,9,9a-hexahydro-1H-pyrazino[2,1-c][1,4]oxazine-8-carbonyl]-2-chloro-phenyl]-1H-pyrazole-5-carbonitrile], the half-inhibitory concentration (IC50) was 190 nM.
`COc1cccc(C(=O)N2CCN3C[C@@](O)(c4csc(-c5ccc(F)cc5)n4)OC[C@@H]3C2)c1Cl` [Example 139, [(3S,9aS)-3-[2-(4-fluorophenyl)thiazol-4-yl]-3-hydroxy-1,4,6,7,9,9a-hexahydropyrazino[2,1-c][1,4]oxazin-8-yl]-(2-chloro-3-methoxy-phenyl)methanone] yielded an IC50 of 254 nM.
`O=C(c1cccc(-c2n[nH]cc2F)c1Cl)N1CCN2C[C@@H](c3cc(Cl)c[nH]c3=O)OC[C@@H]2C1` [Example 140, 3-[(3R,9aS)-8-[2-chloro-3-(4-fluoro-1H-pyrazol-3-yl)benzoyl]-3,4,6,7,9,9a-hexahydro-1H-pyrazino[2,1-c][1,4]oxazin-3-yl]-5-chloro-1H-pyridin-2-one] had an IC50 of 277 nM.
Consider `COc1cccc(C(=O)N2CCN3C[C@@](O)(c4cccc(C(F)(F)F)c4)OC[C@@H]3C2)c1Cl` [Example 141, [(3R,9aS)-3-hydroxy-3-[3-(trifluoromethyl)phenyl]-1,4,6,7,9,9a-hexahydropyrazino[2,1-c][1,4]oxazin-8-yl]-(2-chloro-3-methoxy-phenyl)methanone], for which inhibition was half-maximal at 288 nM (IC50).
Then `COc1cccc(C(=O)N2CCN3C[C@@](O)(c4cccc(F)c4F)OC[C@@H]3C2)c1Cl` [Example 142, [(3R,9aS)-3-(2,3-difluorophenyl)-3-hydroxy-1,4,6,7,9,9a-hexahydropyrazino[2,1-c][1,4]oxazin-8-yl]-(2-chloro-3-methoxy-phenyl)methanone], with 332 nM; and `COc1cccc(C(=O)N2CCN3C[C@@](O)(c4cc(-c5ccccc5)no4)OC[C@@H]3C2)c1Cl` [Example 143, [(3S,9aS)-3-hydroxy-3-(3-phenylisoxazol-5-yl)-1,4,6,7,9,9a-hexahydropyrazino[2,1-c][1,4]oxazin-8-yl]-(2-chloro-3-methoxy-phenyl)methanone], with 348 nM.
Then `COc1cccc(C(=O)N2CCN3C[C@@](O)(c4cc(F)c(F)cc4F)OC[C@@H]3C2)c1Cl` [Example 144, [(3R,9aS)-3-hydroxy-3-(2,4,5-trifluorophenyl)-1,4,6,7,9,9a-hexahydropyrazino[2,1-c][1,4]oxazin-8-yl]-(2-chloro-3-methoxy-phenyl)methanone], with 355 nM.
With `COc1cccc(C(=O)N2CCN3CC(c4ccc(F)c(-c5cnco5)c4)OC[C@@H]3C2)c1Cl` (stereo partly drawn) [Example 145, [(9aS)-3-(4-fluoro-3-oxazol-5-yl-phenyl)-3,4,6,7,9,9a-hexahydro-1H-pyrazino[2,1-c][1,4]oxazin-8-yl]-(2-chloro-3-methoxy-phenyl)methanone], the IC50 worked out at 363 nM.
Then `COc1cccc(C(=O)N2CCN3C[C@@](O)(c4nc5ccccc5s4)OC[C@@H]3C2)c1Cl` [Example 146, [(3S,9aS)-3-(1,3-benzothiazol-2-yl)-3-hydroxy-1,4,6,7,9,9a-hexahydropyrazino[2,1-c][1,4]oxazin-8-yl]-(2-chloro-3-methoxy-phenyl)methanone], with 378 nM; and `COc1ccc(F)c(C(=O)N2CCN3C[C@@H](c4cc(Cl)c[nH]c4=O)OC[C@@H]3C2)c1Cl` [Example 147, 3-[(3R,9aS)-8-(2-chloro-6-fluoro-3-methoxy-benzoyl)-3,4,6,7,9,9a-hexahydro-1H-pyrazino[2,1-c][1,4]oxazin-3-yl]-5-chloro-1H-pyridin-2-one], with 385 nM; and `COc1cccc(C(=O)N2CCN3C[C@@H](c4ccc(Cl)c(C(F)(F)F)n4)OC[C@@H]3C2)c1Cl` [Example 148, [(3S,9aS)-3-[5-chloro-6-(trifluoromethyl)-2-pyridyl]-3,4,6,7,9,9a-hexahydro-1H-pyrazino[2,1-c][1,4]oxazin-8-yl]-(2-chloro-3-methoxy-phenyl)methanone], with 426 nM.
`COc1cccc(C(=O)N2CCN3C[C@@H](c4cccc(F)c4F)OC[C@@H]3C2)c1Cl` [Example 149, [(3R,9aS)-3-(2,3-difluorophenyl)-3,4,6,7,9,9a-hexahydro-1H-pyrazino[2,1-c][1,4]oxazin-8-yl]-(2-chloro-3-methoxy-phenyl)methanone]: the half-maximal inhibitory concentration (IC50) worked out at 468 nM.
As for `COc1cccc(C(=O)N2CCN3C[C@@](O)(c4ccccc4Cl)OC[C@@H]3C2)c1Cl` [Example 150, [(3R,9aS)-3-(2-chlorophenyl)-3-hydroxy-1,4,6,7,9,9a-hexahydropyrazino[2,1-c][1,4]oxazin-8-yl]-(2-chloro-3-methoxy-phenyl)methanone], the IC50 was 546 nM.
`N#Cc1cc(-c2cc(F)cc(C(=O)N3CCN4C[C@H](c5c[nH]c(C(F)(F)F)cc5=O)OC[C@@H]4C3)c2Cl)c[nH]1` [Example 151, 4-[3-[(3S,9aS)-3-[4-oxo-6-(trifluoromethyl)-1H-pyridin-3-yl]-3,4,6,7,9,9a-hexahydro-1H-pyrazino[2,1-c][1,4]oxazine-8-carbonyl]-2-chloro-5-fluoro-phenyl]-1H-pyrrole-2-carbonitrile] showed a concentration for half-maximal inhibition (IC50) of 575 nM.
Then `N#Cc1ncc(-c2cccc(C(=O)N3CCN4C[C@@](O)(c5ccc(F)c(F)c5)OC[C@@H]4C3)c2Cl)[nH]1` [Example 152, 5-[3-[(3R,9aS)-3-(3,4-difluorophenyl)-3-hydroxy-1,4,6,7,9,9a-hexahydropyrazino[2,1-c][1,4]oxazine-8-carbonyl]-2-chloro-phenyl]-1H-imidazole-2-carbonitrile], with 581 nM; and `COc1cccc(C(=O)N2CCN3C[C@@](O)(c4ccc(C(F)(F)F)nc4C)OC[C@@H]3C2)c1Cl` [Example 153, [(3R,9aS)-3-hydroxy-3-[2-methyl-6-(trifluoromethyl)-3-pyridyl]-1,4,6,7,9,9a-hexahydropyrazino[2,1-c][1,4]oxazin-8-yl]-(2-chloro-3-methoxy-phenyl)methanone], with 705 nM.
Consider `COc1cccc(C(=O)N2CCN3C[C@@](O)(c4cc(Cl)cc(-c5cnco5)c4)OC[C@@H]3C2)c1Cl` [Example 154, [(3R,9aS)-3-(3-chloro-5-oxazol-5-yl-phenyl)-3-hydroxy-1,4,6,7,9,9a-hexahydropyrazino[2,1-c][1,4]oxazin-8-yl]-(2-chloro-3-methoxy-phenyl)methanone], for which the concentration for half-maximal inhibition (IC50) is 769 nM.
`COc1cccc(C(=O)N2CCN3C[C@@H](c4ccc(C(F)(F)F)[nH]c4=O)OC[C@@H]3C2)c1Cl` [Example 155, 3-[(3R,9aS)-8-(2-chloro-3-methoxy-benzoyl)-3,4,6,7,9,9a-hexahydro-1H-pyrazino[2,1-c][1,4]oxazin-3-yl]-6-(trifluoromethyl)-1H-pyridin-2-one] yielded an IC50 of 780 nM.
